Several values for one entry are separate records, joined by “and”; a condition that tells them apart may be missing. Identical values can stand only once.
Assays:
[1] = test system: primary human fibroblast expressing the KFERQ-PS-Dendra reporter; experiment: CMA activity, KFERQ-PS-Dendra reporter in primary human fibroblasts; format: cell-based; design: key to CMA activity, mean (Fig. S2c): puncta per cell
Protocol: (§1) Cells were transduced with lentivirus carrying the KFERQ-PS-Dendra reporter as before. Cells were photoactivated by exposure to a 3.5 mA (current constant) light emitting diode (LED: Norlux, 405 nm) for 3 min and then plated in glass-bottom 96 well plates. At the desired times, cells were fixed with 4% PFA and imaged using high-content microscopy (Operetta system, Perkin Elmer). Images were quantified using the manufacturer’s software in a minimum of 1,200 cells in 9 independent fields per well. […] This was particularly important in the case of primary human cells where the efficiency of transduction was ~65%. To avoid confounding effects for drug-induced changes in cell volume or adherence to the plate that could bring a fraction of the cells per field outside of focus, we set a threshold to count only […] that have at least 1/10 of the average number of […] detected in the untreated wells for each cell type (3–4 puncta/cell in the case of NIH3T3 and N2a cells and 5 puncta/cell in primary human fibroblasts).

[2] = test system: CMA network components in NIH3T3 cells; experiment: qPCR of CMA network components and CMA activation score; format: cell-based, mouse; design: LAMP2A mRNA level / HSP90AB1 mRNA level / HSP40 mRNA level / RAC1 mRNA level / AKT1 mRNA level / AKT2 mRNA level / CTSA mRNA level / NFATC1 mRNA level / HSC70 mRNA level / NCOR1 mRNA level / NFE2L2 mRNA level / RAB11A mRNA level / RARa mRNA level / HSP90AA1 mRNA level / EEF1A1 mRNA level / RICTOR mRNA level: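 fold of untreated cells after 20 µM for 24 h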; key to CMA activation score: weighted (LAMP-2A ×2), directed (±1) average of CMA network expression; details: individual replicate values;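 for AKT1 mRNA level: fold of untreated cells after 20 µM for 24 h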;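 for AKT2 mRNA level: fold of untreated cells after 20 µM for 24 h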;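 for CTSA mRNA level: fold of untreated cells after 20 µM for 24 h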;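 for HSC70 mRNA level: fold of untreated cells after 20 µM for 24 h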;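 for HSP40 mRNA level: fold of untreated cells after 20 µM for 24 h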;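 for HSP90AA1 mRNA level: fold of untreated cells after 20 µM for 24 h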;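 for HSP90AB1 mRNA level: fold of untreated cells after 20 µM for 24 h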;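 for LAMP2A mRNA level: fold of untreated cells after 20 µM for 24 h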;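 for NCOR1 mRNA level: fold of untreated cells after 20 µM for 24 h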;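 for NFATC1 mRNA level: fold of untreated cells after 20 µM for 24 h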;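 for NFE2L2 mRNA level: fold of untreated cells after 20 µM for 24 h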;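 for PHLPP1 mRNA level: fold of untreated cells after 20 µM for 24 h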;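 for RAB11A mRNA level: fold of untreated cells after 20 µM for 24 h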;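 for RAC1 mRNA level: fold of untreated cells after 20 µM for 24 h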;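 for RARa mRNA level: fold of untreated cells after 20 µM for 24 h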
Protocol: RNA was extracted from individual retinas or tissue sections (brain, liver). Total RNA from retinas was extracted using TRIzol Reagent (Invitrogen, # 15596-018), and reverse transcription was performed using the High-Capacity cDNA Reverse Transcription Kit (Applied Biosystems, # 4374966) according to the manufacturer’s instructions. Quantitative real-time PCR was performed in a Light Cycler 480 Instrument (Roche) with Taqman LightCycler 480 probes Master Mix (Roche, #4887301001) using Taqman assays (Life Technologies). For cells in culture, RNA was extracted using RNeasy Plus Mini Kit (Qiagen, #74034), and reverse transcription was performed using Superscript III (Invitrogen, #18080051). Quantitative RT-PCR analysis were performed using Power SYBR Green PCR Master Mix (Applied Biosystems, #4368708) on a StepOne Plus Real-Time PCR System (Applied Biosystems). Mm01184405_m1 probe (Thermofisher) was used for rhodopsin and the sequence of all the other probes used for qPCR is included in Supplementary Table 2.
CMA index[14] was calculated using data set from[23]–[25]. Briefly, each element of the CMA network[13] has attributed a weight. As LAMP-2A is the rate-limiting component of CMA, it was given a weight of 2. Every other element received a weight of 1. Then, every element was attributed direction score that is +1 or −1 based on the known effect of a given element on CMA activity. The score was then calculated as the weighted/ directed average of expression counts of every element of the CMA network.

[3] = test system: neuroblastoma cell line N2a expressing the KFERQ-PS-Dendra reporter; experiment: CMA activity, KFERQ-PS-Dendra reporter in N2a cells; format: cell-based, mouse; design: CMA activity, mean (Fig. S2a): unit not given here
Protocol: as §1

NIH3T3 = experiment: Intracellular proteolysis of long half-life proteins; format: cell-based, mouse
Protocol: Confluent cells were labelled with [^3H]leucine (2μCi/ml) (NEN-PerkinElmer Life Sciences) for 48 h and then extensively washed and maintained in medium with an excess of unlabeled leucine. Proteolysis was calculated from aliquots of the medium taken at different times and precipitated in trichloroacetic acid, as the amount of acid-precipitable radioactivity transformed to acid-soluble radioactivity at each time. Where indicated cell were treated during the chase with […] leupeptin (Sigma, #108975) and […] NH4Cl (to determine lysosomal degradation) or with 100 μm MRT 68921 dihydrochloride (Tocris, #5780) (to determine macroautophagy degradation).

[4] = Fig. 2d (left), one sample t test

Cc1ccc(C2=Nc3ccc(Cl)cc3OC2)cc1 [AR7, reference compound]
CMA activity, mean (Fig. S2c) ([1]; concentration 0.02): 24.0456 | CMA activity, mean (Fig. S2c) ([1]; concentration 0.2): 28.2677 | CMA activity, mean (Fig. S2c) ([1]; concentration 2): 18.5469 | CMA activation in human cells ([1]; in words): very discrete | AKT1 mRNA level [2, 4]: 1.38 and 0.89 and 1.44 and 0.86 and 1.06 and 1.51 and 1.42 | AKT2 mRNA level [2, 4]: 1.44 and 0.97 and 1.15 and 0.87 and 1.19 and 1.60 and 1.34 | CTSA mRNA level [2, 4]: 1.25 and 1.34 and 1.07 and 0.82 and 1.13 and 1.21 and 1.33 | EEF1A1 mRNA level [2, 4]: 1.17 and 1.49 and 1.26 and 1.78 and 0.79 and 1.54 | HSC70 mRNA level [2, 4]: 1.32 and 1.34 and 1.36 and 1.12 and 1.37 and 1.41 | HSP40 mRNA level [2, 4]: 0.98 and 1.05 and 1.10 and 0.85 and 0.99 and 0.72 and 1.06 | HSP90AA1 mRNA level [2, 4]: 1.28 and 0.87 and 0.85 and 0.56 and 0.80 and 0.78 and 0.86 | HSP90AB1 mRNA level [2, 4]: 0.93 and 0.89 and 0.92 and 0.63 and 0.94 and 0.80 | LAMP2A mRNA level [2, 4]: 1.15 and 1.53 and 1.46 and 1.28 and 1.31 and 1.13 and 1.27 | NCOR1 mRNA level [2, 4]: 1.16 and 1.11 and 1.26 and 0.79 and 0.85 and 0.87 and 1.01 | NFATC1 mRNA level [2, 4]: 1.04 and 0.72 and 1.34 and 0.83 and 1.03 and 1.25 and 1.28 | NFE2L2 mRNA level [2, 4]: 1.81 and 0.87 and 0.79 and 0.50 and 0.68 and 0.86 and 1.01 | PHLPP1 mRNA level [2, 4]: 1.42 and 1.17 and 1.27 and 2.72 and 1.10 and 1.18 and 1.28 | RAB11A mRNA level [2, 4]: 1.10 and 1.22 and 1.00 and 0.72 and 0.93 and 1.01 | RAC1 mRNA level [2, 4]: 1.21 and 1.55 and 1.26 and 1.08 and 1.31 and 1.54 and 1.42 | RARa mRNA level [2, 4]: 0.99 and 0.33 and 1.02 and 0.95 and 0.90 and 0.86 | RICTOR mRNA level [2, 4]: 0.52 and 1.27 and 0.85 and 0.95 and 1.43 | CMA activation score ([2]; Fig. 2d (right)): -0.03086 and 0.1313 and 0.07179 and -0.1523 | CMA activity, mean relative to concentration 0 = 1 (Fig. S2b) ([3]; 12+12w, concentration 0.2): 0.9288 | CMA activity, mean relative to concentration 0 = 1 (Fig. S2b) ([3]; 12+12w, concentration 2): 0.9525 | CMA activity, mean relative to concentration 0 = 1 (Fig. S2b) ([3]; 12+12w, concentration 5): 0.9471 | CMA activity, mean relative to concentration 0 = 1 (Fig. S2b) ([3]; 12+12w, concentration 10): 0.8786 | CMA activity, mean relative to concentration 0 = 1 (Fig. S2b) ([3]; 12+12w, concentration 20): 0.875 | CMA activity, mean relative to concentration 0 = 1 (Fig. S2b) ([3]; 12+12w, concentration 30): 0.9362 | CMA activity, mean (Fig. S2a) ([3]; 12h, concentration 0.02): 5.372 | CMA activity, mean (Fig. S2a) ([3]; 12h, concentration 0.2): 5.3273 | CMA activity, mean relative to concentration 0 = 1 (Fig. S2b) ([3]; 12h, concentration 0.2): 1.02 | CMA activity, mean (Fig. S2a) ([3]; 12h, concentration 2): 5.394 | CMA activity, mean relative to concentration 0 = 1 (Fig. S2b) ([3]; 12h, concentration 2): 1.033 | CMA activity, mean (Fig. S2a) ([3]; 12h, concentration 5): 6.224 | CMA activity, mean relative to concentration 0 = 1 (Fig. S2b) ([3]; 12h, concentration 5): 1.192 | CMA activity, mean (Fig. S2a) ([3]; 12h, concentration 10): 5.944 | CMA activity, mean relative to concentration 0 = 1 (Fig. S2b) ([3]; 12h, concentration 10): 1.138 | CMA activity, mean (Fig. S2a) ([3]; 12h, concentration 20): 6.2128 | CMA activity, mean relative to concentration 0 = 1 (Fig. S2b) ([3]; 12h, concentration 20): 1.19 | CMA activity, mean (Fig. S2a) ([3]; 12h, concentration 30): 6.043 | CMA activity, mean relative to concentration 0 = 1 (Fig. S2b) ([3]; 12h, concentration 30): 1.157 | CMA activity, mean (Fig. S2a) ([3]; 12h, concentration 40): 6.596 | CMA activity, mean (Fig. S2a) ([3]; 12h, concentration 50): 6.394 | CMA activity, mean (Fig. S2a) ([3]; 12h, concentration 60): 6.271 | CMA activity, mean (Fig. S2a) ([3]; 24h, concentration 0.02): 5.48 | CMA activity, mean (Fig. S2a) ([3]; 24h, concentration 0.2): 5.351 | CMA activity, mean relative to concentration 0 = 1 (Fig. S2b) ([3]; 24h, concentration 0.2): 0.8724 | CMA activity, mean (Fig. S2a) ([3]; 24h, concentration 2): 5.879 | CMA activity, mean relative to concentration 0 = 1 (Fig. S2b) ([3]; 24h, concentration 2): 0.9586 | CMA activity, mean (Fig. S2a) ([3]; 24h, concentration 5): 6.0743 | CMA activity, mean relative to concentration 0 = 1 (Fig. S2b) ([3]; 24h, concentration 5): 0.9904 | CMA activity, mean (Fig. S2a) ([3]; 24h, concentration 10): 6.105 | CMA activity, mean relative to concentration 0 = 1 (Fig. S2b) ([3]; 24h, concentration 10): 0.9953 | CMA activity, mean (Fig. S2a) ([3]; 24h, concentration 20): 6.658 | CMA activity, mean relative to concentration 0 = 1 (Fig. S2b) ([3]; 24h, concentration 20): 1.086 | CMA activity, mean (Fig. S2a) ([3]; 24h, concentration 30): 7.455 | CMA activity, mean relative to concentration 0 = 1 (Fig. S2b) ([3]; 24h, concentration 30): 1.2156 | CMA activity, mean (Fig. S2a) ([3]; 24h, concentration 40): 8.122 | CMA activity, mean (Fig. S2a) ([3]; 24h, concentration 50): 8.426 | CMA activity, mean (Fig. S2a) ([3]; 24h, concentration 60): 8.941 | duration of the increase in degradation of long-lived proteins (NIH3T3; NIH3T3, 10 μM): sustained only for the first 12 h | Lysosomal proteolysis, Mean (Fig. S3c) (NIH3T3; Time 6): 3.18 | Lysosomal proteolysis, Mean (Fig. S3c) (NIH3T3; Time 12): 5.83
